In ChEMBL document CHEMBL3885881, “DrugMatrix”:

Organism: Rattus norvegicus
Test: DrugMatrix - Regimen: Daily Repeat
Type: toxicity, organism-based, Sprague-Dawley
Parameters: regimen Daily Repeat, gender Male, age 6-8 weeks
Details: in vivo, po, route oral GAVAGE, […]; for ABSOLUTE BASOPHIL / ABSOLUTE EOSINOPHIL / ABSOLUTE LYMPHOCYTE / ABSOLUTE MONOCYTE / ABSOLUTE SEGMENTED NEUTROPHIL / BASOPHIL / EOSINOPHIL / ERYTHROCYTE COUNT / HEMATOCRIT / HEMOGLOBIN / LEUKOCYTE COUNT / LYMPHOCYTE / MEAN CORPUSCULAR HEMOGLOBIN / MEAN CORPUSCULAR HEMOGLOBIN CONCENTRATION / MEAN CORPUSCULAR VOLUME / MONOCYTE / NEUTROPHIL / NUCLEATED RED BLOOD CELLS / PLATELET COUNT: tissue Blood; for ALANINE AMINOTRANSFERASE / ALBUMIN / ALKALINE PHOSPHATASE / ASPARTATE AMINOTRANSFERASE / BLOOD UREA NITROGEN / CARBON DIOXIDE / CHLORIDE / CHOLESTEROL / CREATINE PHOSPHOKINASE / CREATININE / GLUCOSE / LACTATE DEHYDROGENASE / LIPASE / PHOSPHORUS / POTASSIUM / SODIUM / TOTAL BILIRUBIN / TOTAL PROTEIN / URIC ACID: tissue Plasma
[1] = 0 mg/kg, 72 h, dose level Control, time 3 day
[2] = 0 mg/kg, 120 h, dose level Control, time 5 day
[3] = 10 mg/kg, 72 h, dose level Low, time 3 day
[4] = 10 mg/kg, 120 h, dose level Low, time 5 day

## C#C[C@]1(O)CC[C@H]2[C@@H]3CCc4cc(O)ccc4[C@H]3CC[C@@]21C [ETHINYL ESTRADIOL]
[1]
  ABSOLUTE BASOPHIL: 0 CELLS/uL
  ABSOLUTE EOSINOPHIL: 104.17 CELLS/uL
  ABSOLUTE LYMPHOCYTE: 14547 CELLS/uL
  ABSOLUTE MONOCYTE: 292 CELLS/uL
  ABSOLUTE SEGMENTED NEUTROPHIL: 1640.17 CELLS/uL
  BASOPHIL: 0%
  EOSINOPHIL: 0.67%
  ERYTHROCYTE COUNT: 5.35 x10E6/uL
  HEMATOCRIT: 33.67%
  HEMOGLOBIN: 13.38 G/DL
  LEUKOCYTE COUNT: 16.58 x10E3/uL
  LYMPHOCYTE: 87.5%
  MEAN CORPUSCULAR HEMOGLOBIN: 25.05 pg
  MEAN CORPUSCULAR HEMOGLOBIN CONCENTRATION: 39.78 G/DL
  MEAN CORPUSCULAR VOLUME: 62.97 fL
  MONOCYTE: 1.83%
  NEUTROPHIL: 10%
  NUCLEATED RED BLOOD CELLS: 0 /100WBC
  PLATELET COUNT: 1274.5 x10E3/uL
  ALANINE AMINOTRANSFERASE: 76.83 u/L
  ALBUMIN: 3.97 G/DL
  ALKALINE PHOSPHATASE: 347 u/L
  ASPARTATE AMINOTRANSFERASE: 97.17 u/L
  BLOOD UREA NITROGEN: 14.33 mg/dL
  CARBON DIOXIDE: 25.5 mmol/L
  CHLORIDE: 100.33 MEQ/L
  CHOLESTEROL: 68.67 mg/dL
  CREATINE PHOSPHOKINASE: 659.17 u/L
  CREATININE: 0.32 mg/dL
  GLUCOSE: 160.67 mg/dL
  LACTATE DEHYDROGENASE: 271.5 u/L
  LIPASE: 11.67 u/L
  PHOSPHORUS: 10.65 mg/dL
  POTASSIUM: 5.95 MEQ/L
  SODIUM: 139.65 MEQ/L
  TOTAL BILIRUBIN: 0.2 mg/dL
  TOTAL PROTEIN: 5.72 G/DL
  URIC ACID: 1.37 mg/dL
[2]
  ABSOLUTE BASOPHIL: 0 CELLS/uL
  ABSOLUTE EOSINOPHIL: 331.5 CELLS/uL
  ABSOLUTE LYMPHOCYTE: 15021.67 CELLS/uL
  ABSOLUTE MONOCYTE: 376.5 CELLS/uL
  ABSOLUTE SEGMENTED NEUTROPHIL: 3070.33 CELLS/uL
  BASOPHIL: 0%
  EOSINOPHIL: 1.83%
  ERYTHROCYTE COUNT: 5.24 x10E6/uL
  HEMATOCRIT: 33.22%
  HEMOGLOBIN: 13.2 G/DL
  LEUKOCYTE COUNT: 18.8 x10E3/uL
  LYMPHOCYTE: 79.67%
  MEAN CORPUSCULAR HEMOGLOBIN: 25.17 pg
  MEAN CORPUSCULAR HEMOGLOBIN CONCENTRATION: 39.73 G/DL
  MEAN CORPUSCULAR VOLUME: 63.38 fL
  MONOCYTE: 2%
  NEUTROPHIL: 16.5%
  NUCLEATED RED BLOOD CELLS: 0 /100WBC
  PLATELET COUNT: 1142.67 x10E3/uL
  ALANINE AMINOTRANSFERASE: 52.5 u/L
  ALBUMIN: 3.9 G/DL
  ALKALINE PHOSPHATASE: 284.5 u/L
  ASPARTATE AMINOTRANSFERASE: 81.33 u/L
  BLOOD UREA NITROGEN: 16 mg/dL
  CARBON DIOXIDE: 25.33 mmol/L
  CHLORIDE: 99.5 MEQ/L
  CHOLESTEROL: 74.83 mg/dL
  CREATINE PHOSPHOKINASE: 448.33 u/L
  CREATININE: 0.37 mg/dL
  GLUCOSE: 164.17 mg/dL
  LACTATE DEHYDROGENASE: 290.67 u/L
  LIPASE: 6.83 u/L
  PHOSPHORUS: 11.5 mg/dL
  POTASSIUM: 6.28 MEQ/L
  SODIUM: 139.5 MEQ/L
  TOTAL BILIRUBIN: 0.13 mg/dL
  TOTAL PROTEIN: 5.55 G/DL
  URIC ACID: 1.12 mg/dL
[3]
  ABSOLUTE BASOPHIL: 0 CELLS/uL
  ABSOLUTE EOSINOPHIL: 112 CELLS/uL
  ABSOLUTE LYMPHOCYTE: 12658 CELLS/uL
  ABSOLUTE MONOCYTE: 346 CELLS/uL
  ABSOLUTE SEGMENTED NEUTROPHIL: 1350.67 CELLS/uL
  BASOPHIL: 0%
  EOSINOPHIL: 1%
  ERYTHROCYTE COUNT: 5.67 x10E6/uL
  HEMATOCRIT: 36.5%
  HEMOGLOBIN: 13.83 G/DL
  LEUKOCYTE COUNT: 14.47 x10E3/uL
  LYMPHOCYTE: 87.33%
  MEAN CORPUSCULAR HEMOGLOBIN: 24.43 pg
  MEAN CORPUSCULAR HEMOGLOBIN CONCENTRATION: 37.9 G/DL
  MEAN CORPUSCULAR VOLUME: 64.47 fL
  MONOCYTE: 2.33%
  NEUTROPHIL: 9.33%
  NUCLEATED RED BLOOD CELLS: 0 /100WBC
  PLATELET COUNT: 1151 x10E3/uL
  ALANINE AMINOTRANSFERASE: 33.67 u/L
  ALBUMIN: 3.67 G/DL
  ALKALINE PHOSPHATASE: 715.33 u/L
  ASPARTATE AMINOTRANSFERASE: 58.67 u/L
  BLOOD UREA NITROGEN: 12 mg/dL
  CARBON DIOXIDE: 22 mmol/L
  CHLORIDE: 103.33 MEQ/L
  CHOLESTEROL: 20 mg/dL
  CREATINE PHOSPHOKINASE: 384.33 u/L
  CREATININE: 0.1 mg/dL
  GLUCOSE: 148.33 mg/dL
  LACTATE DEHYDROGENASE: 168.67 u/L
  LIPASE: 8 u/L
  PHOSPHORUS: 10.77 mg/dL
  POTASSIUM: 6.1 MEQ/L
  SODIUM: 141.07 MEQ/L
  TOTAL BILIRUBIN: 0.13 mg/dL
  TOTAL PROTEIN: 5.3 G/DL
  URIC ACID: 1.13 mg/dL
[4]
  ABSOLUTE BASOPHIL: 0 CELLS/uL
  ABSOLUTE EOSINOPHIL: 138 CELLS/uL
  ABSOLUTE LYMPHOCYTE: 9196.33 CELLS/uL
  ABSOLUTE MONOCYTE: 408.33 CELLS/uL
  ABSOLUTE SEGMENTED NEUTROPHIL: 1390.67 CELLS/uL
  BASOPHIL: 0%
  EOSINOPHIL: 1%
  ERYTHROCYTE COUNT: 5.71 x10E6/uL
  HEMATOCRIT: 34.9%
  HEMOGLOBIN: 13.2 G/DL
  LEUKOCYTE COUNT: 11.13 x10E3/uL
  LYMPHOCYTE: 83%
  MEAN CORPUSCULAR HEMOGLOBIN: 23.1 pg
  MEAN CORPUSCULAR HEMOGLOBIN CONCENTRATION: 37.83 G/DL
  MEAN CORPUSCULAR VOLUME: 61.17 fL
  MONOCYTE: 3.67%
  NEUTROPHIL: 12.33%
  NUCLEATED RED BLOOD CELLS: 0 /100WBC
  PLATELET COUNT: 1450 x10E3/uL
  ALANINE AMINOTRANSFERASE: 54.67 u/L
  ALBUMIN: 3.87 G/DL
  ALKALINE PHOSPHATASE: 644.33 u/L
  ASPARTATE AMINOTRANSFERASE: 72.67 u/L
  BLOOD UREA NITROGEN: 8.33 mg/dL
  CARBON DIOXIDE: 22.33 mmol/L
  CHLORIDE: 101.33 MEQ/L
  CHOLESTEROL: 17.33 mg/dL
  CREATINE PHOSPHOKINASE: 692.67 u/L
  CREATININE: 0.12 mg/dL
  GLUCOSE: 153.33 mg/dL
  LACTATE DEHYDROGENASE: 158 u/L
  LIPASE: 4.33 u/L
  PHOSPHORUS: 10.27 mg/dL
  POTASSIUM: 5.78 MEQ/L
  SODIUM: 139.87 MEQ/L
  TOTAL BILIRUBIN: 0.23 mg/dL
  TOTAL PROTEIN: 6.07 G/DL
  URIC ACID: 1.63 mg/dL
